Data published in patent publication US20240043420A1, “7-AZAINDOLE COMPOUNDS FOR INHIBITION OF BCR-ABL TYROSINE KINASES” (EnLiven Therapeutics, Inc., priority 2020, published 2024).

Legend:
ABL1 (T315I) = ABL1 (T315I) (Homo sapiens, UniProt P00519, T315I); assay: Luminescence-based ABL kinase assay (ADP-Glo, 300 μM ATP), T315I mutant; type: biochemical
Description: (§1) Kinase activity of ABL1 was measured using the ADP-Glo system (Promega), which measures formation of ADP using a luminescence-based method. Compounds were serially diluted in DMSO. 20 nL of compound or DMSO only (high control, HC) were added to a 384-well plate (OptiPlate-384, PerkinElmer) using an Echo550 liquid handler (Labcyte). 15 μL of kinase solution (10 mM MgCl2, 0.01% Brij-35, 2 mM DTT, 0.05% BSA, 1 mM EGTA, 50 mM HEPES pH 7.5, and 3.325 nM ABL1 [Carna Biosciences]) were added to each well of the 384-well plate containing the compounds. No enzyme control wells were included (low control, LC). The plate was incubated at room temperature for 30 minutes. 5 μL of a second solution containing 10 mM MgCl2, 0.01% Brij-35, 2 mM DTT, 0.05% BSA, 1 mM EGTA, 50 mM HEPES pH 7.5, 6 μM Peptide 2 (Perkin Elmer, Cat No 760346), and 1.2 mM ATP were added to each well to start the kinase reaction. The plate was incubated for 90 minutes at room temperature. 20 μL of ADP-Glo reagent (Promega) were then added to each well and the plate was incubated for 40 minutes at room temperature. 40 μL of kinase detection reagent (Promega) was added to each well and the plate was incubated for an additional 45 minutes at room temperature. During this step, ADP was converted to ATP, a substrate for luciferase, to produce luminescence signal. Luminescence was measured on an Envision plate reader (Perkin Elmer). Luminescence signal positively correlates with kinase activity. The percent kinase activity was calculated as follows: percent kinase activity=100×(Lumsample−LumLC)/(LumHC−LumLC). As noted above, DMSO only and no enzyme wells were used as high and low controls, respectively. IC50 values were calculated using the XLFit software.

ABL1 = biological target: T1, ABL1 (Homo sapiens, UniProt P00519); assay: Luminescence-based ABL kinase assay (ADP-Glo, 300 μM ATP); type: biochemical
T1 construct: purchased Carna Biosciences
Description: as §1

COc1ccccc1-c1c[nH]c2nc(NC(=O)NCC3CC3)ccc12 [Compound 122, 3-(cyclopropylmethyl)-1-[3-(2-methoxyphenyl)-1H-pyrrolo[2,3-b]pyridin-6-yl]urea] was tested. Which IC50 (ABL1 (T315I)) did it give?
Its IC50 is 19.9 nM.

What about the IC50 (ABL1) of the same compound?
The IC50 was 73.4 nM.

COc1ccccc1-c1c[nH]c2nc(NC(=O)NCCC#N)ccc12 [Compound 104, 3-(2-cyanoethyl)-1-[3-(2-methoxyphenyl)-1H-pyrrolo[2,3-b]pyridin-6-yl]urea] was tested. Which IC50 (ABL1 (T315I)) did it give?
The IC50 was 29.1 nM.

And the IC50 (ABL1)?
Its IC50 is 102 nM.

For COc1ccccc1-c1c[nH]c2nc(NC(=O)NCCN(C)C)ccc12 [Compound 97, 3-[2-(dimethylamino)ethyl]-1-[3-(2-methoxyphenyl)-1H-pyrrolo[2,3-b]pyridin-6-yl]urea], which IC50 (ABL1 (T315I)) is on record?
The IC50 was 61.6 nM.

What about the IC50 (ABL1) of the same compound?
The IC50 was 199 nM.

Which results are given for COc1cccc(OC)c1-c1c[nH]c2nc(NC(=O)NCC3CNC3)ccc12 [Compound 129, 1-(azetidin-3-ylmethyl)-3-(3-(2,6-dimethoxyphenyl)-1H-pyrrolo[2,3-b]pyridin-6-yl)urea]?
IC50 (ABL1 (T315I)): 35.8 nM; IC50 (ABL1): 32.9 nM

What does the source list for O=C(Nc1ccc2c(-c3ccc4c(c3)NCC4)c[nH]c2n1)C1CC1 [Compound 25, N-[3-(2,3-dihydro-1H-indol-6-yl)-1H-pyrrolo[2,3-b]pyridin-6-yl]cyclopropanecarboxamide]?
IC50 (ABL1 (T315I)): 74.3 nM; IC50 (ABL1): 776 nM

Which results are given for COc1ncccc1-c1c(C)[nH]c2nc(NC(=O)[C@@H]3C[C@@H]3F)ccc12 [Compound 89, (1S,2S)-2-fluoro-N-(3-(2-methoxypyridin-3-yl)-2-methyl-1H-pyrrolo[2,3-b]pyridin-6-yl)cyclopropane-1-carboxamide]?
IC50 (ABL1 (T315I)): 219 nM; IC50 (ABL1): 337 nM

COc1ccccc1-c1c[nH]c2nc(NC(=O)NC3CC3)ccc12 [Compound 123, 3-cyclopropyl-1-[3-(2-methoxyphenyl)-1H-pyrrolo[2,3-b]pyridin-6-yl]urea] was tested. Which IC50 (ABL1 (T315I)) did it give?
The IC50 was 17.6 nM.

What about the IC50 (ABL1) of the same compound?
The IC50 was 56.5 nM.

Which IC50 (ABL1 (T315I)) does the source give for O=C(Nc1ccc2c(-c3ccn4ccnc4c3)c[nH]c2n1)C1CC1 [Compound 55, N-(3-[imidazo[1,2-a]pyridin-7-yl]-1H-pyrrolo[2,3-b]pyridin-6-yl)cyclopropanecarboxamide] here?
Its IC50 is 1030 nM.

What about the IC50 (ABL1) of the same compound?
The IC50 was 114 nM.

For CNc1cc(C)c(-c2c[nH]c3nc(NC(=O)C4CC4)ccc23)cn1 [Compound 35, N-[3-[4-methyl-6-(methylamino)pyridin-3-yl]-1H-pyrrolo[2,3-b]pyridin-6-yl]cyclopropanecarboxamide], which IC50 (ABL1 (T315I)) is on record?
Its IC50 is 774 nM.

And the IC50 (ABL1)?
Its IC50 is 599 nM.

How did the IC50 (ABL1 (T315I)) turn out when O=C(Nc1ccc2c(-c3ccc4cc[nH]c4c3)c[nH]c2n1)C1CC1 [Compound 20, N-(3-(1H-indol-6-yl)-1H-pyrrolo[2,3-b]pyridin-6-yl)cyclopropanecarboxamide] was run?
The IC50 was 27.7 nM.

What about the IC50 (ABL1) of the same compound?
Its IC50 is 110 nM.

With COc1c(-c2c[nH]c3nc(NC(=O)[C@@H]4C[C@@H]4F)ccc23)ccn2ccnc12 [Compound 114, (1S,2S)-2-fluoro-N-(3-[8-methoxyimidazo[1,2-a]pyridin-7-yl]-1H-pyrrolo[2,3-b]pyridin-6-yl)cyclopropane-1-carboxamide] as the compound, how does the IC50 (ABL1 (T315I)) read?
Its IC50 is 150 nM.

And the IC50 (ABL1)?
Its IC50 is 51.4 nM.

For COc1c(-c2c[nH]c3nc(NC(=O)C4CC4)ccc23)ccc2[nH]ncc12 [Compound 16, N-[3-(4-methoxy-1H-indazol-5-yl)-1H-pyrrolo[2,3-b]pyridin-6-yl]cyclopropanecarboxamide], which IC50 (ABL1 (T315I)) is on record?
Its IC50 is greater than 10000 nM.

And the IC50 (ABL1)?
The IC50 was greater than 10000 nM.

What does the source list for COc1c(F)cc(F)c(OC)c1-c1c[nH]c2nc(NC(=O)[C@@H]3C[C@@H]3F)ccc12 [Compound 120, (1S,2S)—N-[3-(3,5-difluoro-2,6-dimethoxyphenyl)-1H-pyrrolo[2,3-b]pyridin-6-yl]-2-fluorocyclopropane-1-carboxamide]?
IC50 (ABL1 (T315I)): 60.8 nM; IC50 (ABL1): 65.5 nM

How did the IC50 (ABL1 (T315I)) turn out when COc1nc2nccn2cc1-c1c[nH]c2nc(NC(=O)[C@@H]3C[C@@H]3F)ccc12 [Compound 128, (1S,2S)-2-fluoro-N-(3-(7-methoxyimidazo[1,2-a]pyrimidin-6-yl)-1H-pyrrolo[2,3-b]pyridin-6-yl)cyclopropane-1-carboxamide] was run?
The IC50 was 97.1 nM.

What about the IC50 (ABL1) of the same compound?
Its IC50 is 24.9 nM.

How did the IC50 (ABL1 (T315I)) turn out when COc1c(-c2c[nH]c3nc(NC(=O)[C@@H]4C[C@@H]4F)ccc23)ccc2nccn12 [Compound 73, (1S,2S)-2-fluoro-N-(3-(5-methoxyimidazo[1,2-a]pyridin-6-yl)-1H-pyrrolo[2,3-b]pyridin-6-yl)cyclopropane-1-carboxamide] was run?
Its IC50 is greater than 10000 nM.

What about the IC50 (ABL1) of the same compound?
The IC50 was 2460 nM.

For Nc1cccc(-c2c[nH]c3nc(NC(=O)C4CC4)ccc23)n1 [Compound 38, N-(3-(6-aminopyridin-2-yl)-1H-pyrrolo[2,3-b]pyridin-6-yl)cyclopropanecarboxamide], which IC50 (ABL1 (T315I)) is on record?
Its IC50 is 332 nM.

And the IC50 (ABL1)?
Its IC50 is 689 nM.

How did the IC50 (ABL1 (T315I)) turn out when COc1ncc(F)cc1-c1c[nH]c2nc(NC(=O)NCCN(C)C)ccc12 [Compound 80, 3-[2-(dimethylamino)ethyl]-1-[3-(5-fluoro-2-methoxypyridin-3-yl)-1H-pyrrolo[2,3-b]pyridin-6-yl]urea] was run?
The IC50 was 659 nM.

And the IC50 (ABL1)?
Its IC50 is 1050 nM.

What does the source list for Cn1cc(-c2c[nH]c3nc(NC(=O)C4CC4)ccc23)ccc1=O [Compound 57, N-[3-(1-methyl-6-oxopyridin-3-yl)-1H-pyrrolo[2,3-b]pyridin-6-yl]cyclopropanecarboxamide]?
IC50 (ABL1 (T315I)): 3870 nM; IC50 (ABL1): 1090 nM

With Cc1cc(N)ncc1-c1c[nH]c2nc(NC(=O)C3CC3)ccc12 [Compound 34, N-[3-(6-amino-4-methylpyridin-3-yl)-1H-pyrrolo[2,3-b]pyridin-6-yl]cyclopropanecarboxamide] as the compound, how does the IC50 (ABL1 (T315I)) read?
The IC50 was 731 nM.

And the IC50 (ABL1)?
Its IC50 is 159 nM.

What does the source list for O=C(Nc1ccc2c(-c3ccc4[nH]ccc4c3)c[nH]c2n1)C1CC1 [Compound 18, N-[3-(1H-indol-5-yl)-1H-pyrrolo[2,3-b]pyridin-6-yl]cyclopropanecarboxamide]?
IC50 (ABL1 (T315I)): 14.5 nM; IC50 (ABL1): 33 nM

With Nc1ccc(-c2c[nH]c3nc(NC(=O)C4CC4)ccc23)cn1 [Compound 40, N-[3-(6-aminopyridin-3-yl)-1H-pyrrolo[2,3-b]pyridin-6-yl]cyclopropanecarboxamide] as the compound, how does the IC50 (ABL1 (T315I)) read?
Its IC50 is 170 nM.

What about the IC50 (ABL1) of the same compound?
The IC50 was 121 nM.

Which IC50 (ABL1 (T315I)) does the source give for COc1cc2scnc2cc1-c1c[nH]c2nc(NC(=O)NCCN3CCNCC3)ccc12 [Compound 140, 3-[3-(6-methoxy-1,3-benzothiazol-5-yl)-1H-pyrrolo[2,3-b]pyridin-6-yl]-1-[2-(piperazin-1-yl)ethyl]urea] here?
Its IC50 is 82.5 nM.

And the IC50 (ABL1)?
The IC50 was 30.6 nM.

For COc1nc2[nH]ccc2cc1-c1c[nH]c2nc(NC(=O)[C@H]3C[C@@H]3F)ccc12 [Compound 141, (1R,2S)-2-fluoro-N-(6′-methoxy-1H,1′H-[3,5′-bipyrrolo[2,3-b]pyridin]-6-yl)cyclopropane-1-carboxamide], which IC50 (ABL1 (T315I)) is on record?
Its IC50 is 31.2 nM.

What about the IC50 (ABL1) of the same compound?
The IC50 was 45.5 nM.

Which results are given for O=C(Nc1ccc2c(-c3cccnc3OCC3CC3)c[nH]c2n1)C1CC1F (single isomer, unassigned) [Example S148, Enantiomer 1, N-(3-(2-(cyclopropylmethoxy)pyridin-3-yl)-1H-pyrrolo[2,3-b]pyridin-6-yl)-2-fluorocyclopropane-1-carboxamide Enantiomer 1]?
IC50 (ABL1 (T315I)): 1810 nM; IC50 (ABL1): 408 nM

How did the IC50 (ABL1 (T315I)) turn out when CN(C)c1ncccc1-c1c[nH]c2nc(NC(=O)C3CC3)ccc12 [Compound 65, N-(3-(2-(dimethylamino)pyridin-3-yl)-1H-pyrrolo[2,3-b]pyridin-6-yl)cyclopropanecarboxamide] was run?
Its IC50 is 8700 nM.

And the IC50 (ABL1)?
The IC50 was 158 nM.

CNc1cccc(-c2c[nH]c3nc(NC(=O)C4CC4)ccc23)n1 [Compound 39, N-(3-(6-(methylamino)pyridin-2-yl)-1H-pyrrolo[2,3-b]pyridin-6-yl)cyclopropanecarboxamide] was tested. Which IC50 (ABL1 (T315I)) did it give?
Its IC50 is 245 nM.

What about the IC50 (ABL1) of the same compound?
The IC50 was 195 nM.

Which results are given for COc1nc2[nH]ccc2cc1-c1c[nH]c2nc(NC(=O)[C@@H]3C[C@@H]3F)ccc12 [Compound 93, (1S,2S)-2-fluoro-N-(6′-methoxy-1H,1′H-[3,5′-bipyrrolo[2,3-b]pyridin]-6-yl)cyclopropane-1-carboxamide]?
IC50 (ABL1 (T315I)): 2.94 nM; IC50 (ABL1): 5.3 nM

For COc1c(-c2c[nH]c3nc(NC(=O)[C@@H]4C[C@@H]4F)ccc23)ccc2ncnn12 [Compound 134, (1S,2S)-2-fluoro-N-(3-[5-methoxy-[1,2,4]triazolo[1,5-a]pyridin-6-yl]-1H-pyrrolo[2,3-b]pyridin-6-yl)cyclopropane-1-carboxamide], which IC50 (ABL1 (T315I)) is on record?
Its IC50 is 227 nM.

What about the IC50 (ABL1) of the same compound?
The IC50 was 64.8 nM.

What does the source list for Nc1ncccc1-c1c[nH]c2nc(NC(=O)C3CC3)ccc12 [Compound 36, N-[3-(2-aminopyridin-3-yl)-1H-pyrrolo[2,3-b]pyridin-6-yl]cyclopropanecarboxamide]?
IC50 (ABL1 (T315I)): 690 nM; IC50 (ABL1): 202 nM

Which results are given for COc1ccccc1-c1c[nH]c2nc(NC(=O)[C@H]3C[C@@H]3CC#N)ccc12 (relative stereo) [Compound 107, trans-2-(cyanomethyl)-N-(3-(2-methoxyphenyl)-1H-pyrrolo[2,3-b]pyridin-6-yl)cyclopropane-1-carboxamide]?
IC50 (ABL1 (T315I)): 19.5 nM; IC50 (ABL1): 151 nM
